The values below come from patent US11684763B2, “Multi-component bio-active drug delivery and controlled release to the skin by microneedle array devices” (University of Pittsburgh—Of the Commonwealth System of …, priority 2015, dated 2023).

In data set [1] the test system is epidermal cells of living human skin explants. The note with it: 5 mg/g of CMC; arrays removed after 5 minutes; 72 hours of exposure. Here is the method: Cytoxan® was integrated at a concentration of 5 mg/g of CMC, enabling delivery of approximately about 140 μg per array. This is a therapeutically relevant concentration based on the area of skin targeted, yet well below levels associated with systemic toxicities. Living human skin organ cultures were used to assess the cytotoxicty of Cytoxan®. Cytoxan® was delivered by application of arrays to skin explants as we previously described. Arrays and residual material were removed 5 minutes after application, and after 72 hours of exposure, culture living skin explants were cryo-sectioned and fixed. Apoptosis was evaluated using green fluorescent TUNEL assay (In Situ Cell Death Detection Kit, TMR […], Roche, cat #:11-684-795-910).

Data set [2] can be described thus: Dye release from MNAs inserted into 4% agar test-gels. The note with it: dually loaded MNA. Format: physicochemical. From the text: To illustrate the delivery of multiple drugs with distinct release kinetics, MNAs were fabricated to delivery two distinct cargos by distinct release kinetics. Specifically, MNAs were fabricated to release the marker Toluidine Blue in an initial burst, followed by a sustained release of the marker FD&C Red40. Dyes were directly loaded in the MNA scaffold matrix (in this case CMC) of the needle tips and in some cases a second dye, encapsulated in a sustained release polymer was layer directly below. MNAs were inserted into 4% agar test-gels and removed after 1 min.
Images of dye diffusion were collected at the indicated time points (FIG. 39A). […] Alternatively, MNAs were fabricated with toluidine blue tip-loaded and FD&C Red40 encapsulated in a sustained release polymer (FIG. 39C). MNAs were inserted into 4% agar test-gel and removed after 1 min. Images were collected at the indicated time-points. […] Upper panels depict images of microneedles from MNAs before application. The middle images are the imprints of the arrays 1 minute after application and MNA removal. Lower panels depicted the indicated representative magnified images at the indicated time points.

The subject of the next data set is B16 skin tumors. In words: B16 melanoma model: established skin tumors treated with MNAs. The note with it: MNA once weekly for three weeks; for tumor growth: compared to untreated tumor bearing animals; for survival: untreated animals 100% mortality.

Experimental for B16 skin tumors: The B16 melanoma model was used as a model tumor to test these novel approaches.
Visible established cutaneous tumors were treated once weekly for three weeks with MNAs containing either doxorubicin alone, Poly(I:C) alone, or doxorubicin and Poly(I:C) incorporated into the same MNA. The doxorubicin dose chosen corresponds to an MNA dose that induces apoptosis in human skin without causing necrosis. Tumor growth and survival were measured regularly for the duration of the study.

Consider `O=P1(N(CCCl)CCCl)NCCCO1` (centres unmarked) [Cytoxan®, cyclophosphamide], for which the “apoptosis of epidermal cells (TUNEL)” value in data set [1] is “extensive apoptosis of epidermal cells”.

Turning to `COc1cc(S(=O)(=O)[O-])c(C)cc1N=Nc1c(O)ccc2cc(S(=O)(=O)[O-])ccc12.[Na+].[Na+]` [FD&C Red40], the “release of encapsulated dye” value in data set [2] (dye encapsulated in a sustained release polymer) is “released slowly over an extended time period”. Also, the “period of release from depot” value in data set [2] (dye in underlying layer of sustained release polymer) is 10 days.

As for `Cc1cc2nc3ccc(N(C)C)cc3[s+]c2cc1N.[Cl-]` [Toluidine Blue], in data set [2] (dye in CMC in the needle tip), the “release of tip-loaded dye” value is recorded as “released in an initial burst”.

For the compound `COc1cccc2c1C(=O)c1c(O)c3c(c(O)c1C2=O)C[C@@](O)(C(=O)CO)C[C@@H]3O[C@H]1C[C@H](N)[C@H](O)[C@H](C)O1` [doxorubicin], in the data set with B16 skin tumors, the tumor growth result is “slowed tumor growth” and the survival amounted to 30%.

Consider Poly(I:C), for which, in the data set with B16 skin tumors, the tumor growth result is reported as “slowed tumor growth” and the survival amounted to 50%.
